“Also recorded” adds a separate entry of the source.
Tests used:
Format in all cases: in vivo, mouse
MIA offspring [1] = assay: Three-chamber social approach assay in PBS and MIA offspring
Experimental: Adult male mice were assayed for sociability using a three-chamber social approach assay. The arena was constructed of white acrylic (50 cm×35 cm×30 cm). Wire cups (Spectrum Diversified®) were placed in the back left and right corner of the arena beneath water-filled 1 L bottles (Nalgene®). On Day 0, mice were habituated to the arena for 10 min. Immediately following habituation, mice were singly housed. On Day 1 (Pre), mice were placed in the center of the arena and allowed to freely explore. Following 10 min, mice were confined to the center of the arena. An inanimate object (rubber stopper) or a male conspecific were placed beneath the wire cups. Placement of the inanimate object and social target were alternated. Mice were then allowed to freely explore the arena for 10 min. Interaction time was defined as time spent in the areas circumscribing the wire cups (<2 cm). Sociability was defined as interaction time with the social target divided by total interaction time and expressed as a percentage. For experiments involving LPS injections, mice were injected with LPS ([…], i.p., L2630, Sigma) on Day 2 (Test), four hours prior to testing. […]
Adult male mice were implanted with cannula into S1DZ and allowed to recover for >2 weeks prior to behavioral experiments. On Day 1 (Pre) mice were assayed for sociability. On Day 2 (Test), mice were anesthetized briefly using isoflurane and either vehicle or IL-17a (50 ng/side in 1 μl at a rate of 180 nl/min, 7956-ML/CF, R&D®) was administered bilaterally into S1DZ through 250 μm-projecting injector tips (PlasticsOne®). Four hours after vehicle or IL-17a administration, mice were assayed for sociability. Cannula placements were verified using histology.
Adult male mice were assayed for sociability using a three-chamber social approach assay. The arena was constructed of white acrylic (50 cm×35 cm×30 cm). Wire cups (Spectrum Diversified®) were placed in the back left and right corner of the arena beneath water-filled 1 L bottles (Nalgene®). On day 0, mice were habituated to the arena for 10 min. Immediately following habituation, mice were singly housed. On day 1 (Pre), mice were placed in the center of the arena and allowed to freely explore. Following 10 min, mice were confined to the center of the arena. An inanimate object (rubber stopper) or a male conspecific were placed beneath the wire cups. Placement of the inanimate object and social target were alternated. Mice were then allowed to freely explore the arena for 10 min. Interaction time was defined as time spent in the areas circumscribing the wire cups (<2 cm). Sociability was defined as interaction time with the social target divided by total interaction time and expressed as a percentage. For experiments involving LPS injections, mice were injected with either saline (Veh) or LPS ([…], i.p., L2630, Sigma) on day 2 (Test), four hours prior to testing. For the experiment assaying sociability 72 hrs following LPS injection, mice used for 4 hr LPS sociability experiments were tested for sociability again at 72 hrs.
Adult male Vgat-Cre MIA offspring were bilaterally injected with virus encoding the inhibitory DREADD receptor fused to mCherry into the vLPO. Following >3 weeks of recovery, mice were assayed on the three-chamber social approach assay outlined above. Baseline sociability was assayed on day 1 (Pre). On day 2 and day 3, mice were injected with either Saline (Veh) or CNO (1.5 mg/kg i.p., BML-NS105, Enzo Life Sciences®), two hours prior to initiation of behavior. Injection order was counterbalanced. Following behavioral experiments, post-mortem histology was used to confirm mCherry expression within the vLPO. For experiments assaying the effect of CNO and LPS injection in Vgat-Cre PBS and MIA offspring that have not undergone surgery, baseline sociability was assessed on day 1. On day 2 and 3 mice received counterbalanced injections of CNO or vehicle. On day 4, mice were injected with LPS. […]

MIA offspring [2] = assay: Marble burying assay; settings: four hours after LPS
Experimental: On day 1, mice were tested for their baseline marble burying phenotype. On day 2, four hours prior to beginning the marble burying assay, mice were treated with either LPS or vehicle. Marble burying assay was carried out as described previously^8. Mice were placed into testing arenas (arena size: 40 cm×20 cm×30 cm, bedding depth: 3 cm) each containing 20 glass marbles (laid out in four rows of five marbles equidistant from one another). At the end of the 15 min exploration period mice were carefully removed from the testing cages and the number of marbles buried was recorded. The marble burying index was arbitrarily defined as the following: 1 for marbles covered >50% with bedding, 0.5 for marbles covered <50% with bedding, or 0 for anything less.

IL-17a, IFNγ, IL-6, TNFα = assay: ELISA of cytokines in plasma and brain lysate
Experimental: Mice were put under general anesthesia by intraperitoneal injection of Ketamine (100 mg/kg, i.p.) and xylazine (10 mg/kg, i.p.). Blood was collected by retro-orbital puncture, using clean heparinized microhematocrit capillary tubes (Fisher Scientific®). Once the tube was withdrawn, slight pressure was applied on the eyelid with gauze to prevent further bleeding. All blood samples were centrifuged at 15,000 g for 3 min at room temperature. For quantification of cytokines in brain lysate, samples were disrupted in cold lysis buffer with protease inhibitor cocktail for 60 seconds using the Micro-Homogenizer (VWR International) and centrifuged for 30 min at 15,000×g to remove insoluble precipitates. All samples were stored at −80° C. until further analysis. Plasma and brain lysate cytokines concentrations were measured using an ELISA kit (Biolgened™), following the manufacturer's instructions.
After four hours of vehicle or LPS administration, mice were anesthetized by intraperitoneal injection of fatal plus (100 mg/kg). All blood samples were centrifuged at 10,000 g for 10 min at 4 C. All samples were stored at −80° C. until further analysis. Cytokines concentrations in plasma were measured using an ELISA kit (IFN-γ; 430804, TNF-α; 430904, IL-6; 431304, IL-17a; 432504, Biolegend®), following the manufacturer's instructions.

lipopolysaccharide [LPS]
sociability deficits (MIA offspring [1]; IFNγ or IL-17a knockout (KO) MIA offspring, LPS i.p., 4 hours): failed to rescue the sociability deficits in IFNγ or IL-17a knockout (KO) MIA offspring | LPS-induced rescue of sociability by age (MIA offspring [1]; MIA mice, young (2-5 months) and aged (9-12 month), 4 hr after LPS): observed in both young (2-5 months) and aged (9-12 month) mice; also recorded: effective in aged mice | sociability (deficit in sociability) (MIA offspring [1]; MIA offspring (WT), LPS 50 μg/kg i.p., 4 hours after injection): temporarily rescued; also recorded: robustly rescued their characteristic deficits in sociability; also recorded: restored sociability; also recorded: rescues sociability deficits in MIA offspring | sociability (MIA offspring [1]; MIA offspring deficient for IL-17Ra in the S1DZ (IL-17Ra fl/fl; EGFP:nCre), LPS i.p., 4 hours): failed to restore sociability | sociability rescue 72 hours following LPS (MIA offspring [1]; MIA offspring, 72 hours after LPS treatment): behavioral rescue was absent 72 hours following LPS treatment; also recorded: absent 72 hours following the treatment; also recorded: transient | baseline sociability (MIA offspring [1]; PBS (control) offspring, LPS i.p., 4 hours after injection): Neither vehicle nor LPS injection affected baseline sociability in PBS offspring; also recorded: did not affect baseline sociability in control offspring | sociability in MIA Vgat-Cre mice (MIA offspring [1]; Vgat-Cre MIA offspring without surgery, CNO 1.5 mg/kg i.p. or LPS): showed an increase in sociability upon LPS treatment | marble burying behavior (MIA offspring [2]): rescued an enhanced marble burying behavior | IL-17a in the brain (IL-17a, IFNγ, IL-6, TNFα; IFNγ KO MIA offspring, LPS treatment): no longer detectable | IL-17a and IFNγ levels in the brain (IL-17a, IFNγ, IL-6, TNFα; MIA offspring injected with LPS, brain lysate): elevated levels of IL-17a, but not IFNγ, in the brain | plasma levels of IFNγ, IL-6, TNFα and IL-17a (IL-17a, IFNγ, IL-6, TNFα; MIA offspring, LPS i.p.): increased plasma levels of inflammatory cytokines; also recorded: robust increase in plasma levels of IFNγ, IL-6, TNFα and IL-17a | plasma/blood levels of inflammatory cytokines (IL-17a, IFNγ) (IL-17a, IFNγ, IL-6, TNFα; PBS (control) offspring, LPS 50 μg/kg i.p.): insufficient to produce high levels of inflammatory cytokines; also recorded: failed to increase IL-17a and IFNγ levels in the blood | plasma levels of IFN-γ, IL-6, and TNF-α (IL-17a, IFNγ, IL-6, TNFα; PBS, MIA, WT and monogenic mutant mice (FIG. 23A), four hours after LPS): robust increase in plasma levels of IFN-γ, IL-6, and TNF-α | plasma/blood IL-17a, MIA offspring vs monogenic mutant mice and controls (IL-17a, IFNγ, IL-6, TNFα; four hours after LPS): did not induce comparable amounts of interleukin-17a (IL-17a) as in MIA offspring; also recorded: prominently upregulated in MIA offspring, but not in monogenic mutant mice or in control animals; also recorded: increase in IL-17a levels in the blood selectively in MIA offspring, but not in other monogenic mutant mice

— patent US20220072101A1, “HARNESSING INFLAMMATION TO TREAT NEURODEVELOPMENTAL DISORDERS” (President and Fellows of Harvard College, priority 2019, published 2022)
